Test results taken from paper PMC9082918, “Time-course changes in DNA damage of corneal epithelial cells in rabbits following ocular instillation with genotoxic compounds” (Genes and Environment, 2022).
Read-outs that look alike come from different tables or passages of the source. Marks after values point to notes of the source that are not given here.

Assays:
HCE-T cells [1] = assay: In vitro comet assay after 1 min exposure; type: cell-based, human
Protocol: To assess time-course changes in DNA damage after short-time exposure to the genotoxic compounds, the in vitro comet assay was performed using HCE-T cells with reference to our previous study. Briefly, the HCE-T cells were seeded in a 12-well culture plate at a density of 5 × 10^4 cells/well (1 mL/well) and incubated for approximately 24 h. After a 24-h incubation, the cells were washed with PBS. […] After the treatment, the cells were washed with PBS, and 1 mL of fresh culture medium was added. The cells were further incubated for 2, 4, 6, and 24 h at 37 °C. After incubation, the cells were trypsinized (TrypLE™ Express, Thermo Fisher Scientific K.K.). In the same manner, the cells were exposed to the test compounds or distilled water as a negative control for 1 min to evaluate DNA damage immediately after exposure. Immediately after the treatment, the cells were washed and trypsinized. The collected cells were centrifuged and re-suspended in PBS at a density of 1–2 × 10^5 cells/mL. Comet assay was performed as described previously herein (n = 3/group).
(§1) The mean and SD of the % tail DNA and cell viability (%) were calculated for all experimental groups. […] JMP version 15.1.0 was used for all statistical analyses.

HCE-T cells [2] = assay: Cytotoxicity assay (Cell Counting Kit-8) after 1 min exposure; type: cell-based, human
Protocol: (§2) For cytotoxicity assay, the HCE-T cells were seeded in a 96-well culture plate at a density of 5 × 10^3 cells/well (100 μL/well) and incubated for approximately 24 h. After the 24-h incubation, the cells were washed with PBS. The cells were then exposed to a mixture of 50 μL of serum-free medium and an equal volume of test compounds at twice concentration of final concentration for 1 min at room temperature. After the treatment, the cells were washed with PBS, and 100 μL of fresh culture medium was added. The cells were further incubated for 2, 4, 6, and 24 h at 37 °C. After that, the cells were incubated with 100 μL of Cell Counting Kit-8 (Dojindo Laboratories Co., Ltd., Kumamoto, Japan) diluted to one-tenth with a serum-free medium for 2 h at 37 °C. Absorbance was measured at 450 nm using a microplate reader (Synergy HTX, BioTek Instruments Inc., Winooski, VT). Cell viability was calculated as follows: the absorbance of compound-treated cells/the absorbance of non-treated cells, expressed as a percentage (n = 3/group).
as §1

[3] = as above; type: cell-based, human; details: human
Protocol: as §2, §1

[4] = test system: corneal epithelial cells of rabbit; assay: In vivo alkaline comet assay of corneal epithelial cells after single ocular instillation
Protocol: Experiments were performed per sampling time, and […] clinically normal rabbits were randomly assigned to each treatment group.
After ocular instillation, the eyelids were artificially blinked several times. The rabbits were euthanized after 0.5, 2, 4, 6, and 24 h by intravenously administering an overdose (approximately 90 mg/kg) of thiopental solution (Ravonal; Nipro ES Pharma Co. Ltd., Osaka, Japan). The eyeballs of the rabbits were collected after euthanasia and subjected to the comet assay.
The collected eyes were washed with Ca^2+- and Mg^2+-free phosphate-buffered saline (PBS). After washing, the corneas were removed from the eyes using scissors. The removed corneas were treated with 1.2 unit/mL Dispase II (Roche Diagnostics K.K., Tokyo, Japan) in minimum essential media (MEM; Thermo Fisher Scientific K. K., Tokyo, Japan) supplemented with 10% bovine serum (10% BS/MEM) overnight at 4 °C. Corneal epithelial cells were isolated using a spatula and placed into fresh 10% BS/MEM. The cells were centrifuged at 200×g for 5 min, and the supernatants were discarded. The cells were resuspended in 1 mL of 0.25% trypsin (Thermo Fisher Scientific K. K.) and incubated for 10 min at 37 °C. Furthermore, 8 mL of 10% BS/MEM was added to the cells, and the cell suspensions were passed through a 70-μm cell strainer. The cells were centrifuged at 200×g for 5 min, and the supernatants were discarded. The cells were then resuspended with PBS to a density of approximately 2 × 10^5 cells/mL.
The alkaline comet assay was conducted according to previously published method. A 30 μL of the prepared cell suspension was mixed with 270 μL of melted agarose solution (CometAssay LMAgarose; Trevigen, Inc., Gaithersburg, MD). Then, 30 μL of this mixture was placed in each well of a 20-well slide (CometSlide HT, Trevigen, Inc.), and the slide was left for approximately 10 min at 4 °C to solidify the agarose. The slide was immersed in lysis solution (pH 10) containing 2.5 M sodium chloride, 100 mM di-sodium dihydrogen ethylenediaminetetraacetate dihydrate (EDTA∙2Na), 10 mM tris(hydroxymethyl)aminomethane (Tris), and 1% (v/v) polyethylene glycol mono-p-isooctylphenyl ether for 1 h at 4 °C. Subsequently, the slide was immersed in an alkaline unwinding solution (200 mM sodium hydroxide and 1 mM EDTA, pH > 13) for 20 min at room temperature. Electrophoresis was performed with the same solution at 1 V/cm for 30 min under refrigeration. After electrophoresis, the slide was washed twice with ultrapure water and dehydrated by immersion in ethanol for 10 min. The slide was stained with SYBR Green I Nucleic Acid Gel Stain (excitation maxima at 497 nm, emission maxima at 520 nm; Thermo Fisher Scientific K. K.) diluted 1:1000 with Tris-EDTA buffer (pH 7.5) and mounted using ProLong Gold (Thermo Fisher Scientific K. K.). The slide was observed using a BX51 fluorescence microscope (Olympus Corporation, Tokyo, Japan) with a NIBA filter (excitation at 460–495 nm and emission at 510–550 nm) equipped with a CCD camera (scA1300-32 fm; Basler AG, Ahrensburg, Germany).
First, the number of “hedgehogs” was counted among 150 comets per eye (450 comets per group). According to the Atlas of Comet Assay Images, hedgehogs are highly fragmented cells presenting as a small or non-existent comet head and large diffuse comet tail. Second, 150 scorable comets (i.e., with a clearly defined head and tail with no interference from neighboring cells) without hedgehogs were measured per eye (450 comets per group).

rabbit cornea = assay: Histopathological examination of cornea; details: in vivo
Protocol: (§3) Twenty-four hours after administration, the anterior segment of the eye was observed using a slit-lamp biomicroscope SL-130 (Carl Zeiss Meditec AG, Jena, Germany). The corneal epithelial damage was evaluated by staining with fluorescein (AYUMI Pharmaceutical Corporation, Tokyo, Japan). After anterior ocular observation, the rabbits were euthanized in the same manner as the comet assay, and the eyeballs of the rabbits were collected.
The collected eyes (one eye per group) were fixed with 1% formaldehyde/2.5% glutaraldehyde in 0.1 M phosphate buffer fixative overnight at 4 °C and post-fixed with 10% neutral-buffered formalin solution. The tissues were dehydrated using a graded alcohol series and embedded in paraffin. Approximately 3-μm-thick corneal tissue sections were prepared and stained with hematoxylin and eosin. All microscopic images were obtained with a BX53 microscope fitted with a DP74 digital camera (Olympus Corporation) and analyzed using the cellSens Standard imaging software, version 2.3 (Olympus Corporation).

[5] = test system: anterior segment of the eye; assay: Ophthalmological examination of anterior ocular segment (slit-lamp, fluorescein staining); type: in vivo, rabbit
Protocol: as §3

[6] = after single ocular instillation (1% EtBr, 3% MMS, 1% 4-NQO), sampling at 0.5, 2, 4, 6, 24 h

COS(C)(=O)=O [MMS, methyl methanesulfonate]
Change of % tail DNA after removing the compound (HCE-T cells [1]): decreased | Cytotoxicity (in words) (HCE-T cells [2]): no cytotoxicity | viability at 2 h [3]: 115 ± 5.1% | viability at 4 h [3]: 108.1 ± 0.3% | viability at 6 h [3]: 108 ± 4.9% | viability at 24 h [3]: 108 ± 11.3% | Time of the peak value of the % tail DNA ([4]; rabbit, in vivo): 0.5 h | % tail DNA, mean ± SD ([4]; rabbit, in vivo, 0.5 h): 66.2 ± 1.8% | % tail DNA, median ([4]; rabbit, in vivo, 0.5 h): 70.8% | Frequency of hedgehog ([4]; rabbit, in vivo, 0.5 h): 12.9 ± 7.8^a % | % tail DNA, mean ± SD ([4]; rabbit, in vivo, 2 h): 63.6 ± 4.4% | % tail DNA, median ([4]; rabbit, in vivo, 2 h): 69.4% | Frequency of hedgehog ([4]; rabbit, in vivo, 2 h): 13.6 ± 8.3^a % | % tail DNA, mean ± SD ([4]; rabbit, in vivo, 4 h): 47.1 ± 7.2% | % tail DNA, median ([4]; rabbit, in vivo, 4 h): 48.9% | Frequency of hedgehog ([4]; rabbit, in vivo, 4 h): 10.7 ± 1.0^a % | % tail DNA, mean ± SD ([4]; rabbit, in vivo, 6 h): 50.1 ± 2.8% | % tail DNA, median ([4]; rabbit, in vivo, 6 h): 56.0% | Frequency of hedgehog ([4]; rabbit, in vivo, 6 h): 8.0 ± 2.0^a % | % tail DNA, mean ± SD ([4]; rabbit, in vivo, 24 h): 40.1 ± 2.4% | % tail DNA, median ([4]; rabbit, in vivo, 24 h): 38.1% | Frequency of hedgehog ([4]; rabbit, in vivo, 24 h): 2.0 ± 1.0^a % | Infiltrate, inflammatory cell, corneal limbus (rabbit cornea): ± | Ophthalmological changes of the anterior ocular segment ([5]; rabbit, in vivo): No abnormal ophthalmological changes

O=[N+]([O-])c1cc[n+]([O-])c2ccccc12 [4-NQO, 4-nitroquinoline 1-oxide]
viability at 2 h ([3]; read-out: Cell viability): 139 ± 2% | viability at 4 h ([3]; read-out: Cell viability): 114 ± 14.5% | viability at 6 h ([3]; read-out: Cell viability): 123 ± 24.2% | viability at 24 h ([3]; read-out: Cell viability): 118 ± 13.9% | Time of the peak value of the % tail DNA [4, 6]: 0.5 h

CC[n+]1c(-c2ccccc2)c2cc(N)ccc2c2ccc(N)cc21 [EtBr, ethidium bromide]
Change of % tail DNA after removing the compound (HCE-T cells [1]; 1 min exposure (0.5% EtBr, 0.5% MMS, 0.001% 4-NQO), then 2, 4, 6, 24 h in fresh medium): gradually increased | Cytotoxicity (in words) (HCE-T cells [2]; 24 h after removing the compound, 1 min exposure, 0.5% EtBr): Moderate cytotoxicity | Cytotoxicity (in words) (HCE-T cells [2]; other times (2, 4, 6 h) after removing the compound, 1 min exposure, 0.5% EtBr): slight cytotoxicity | viability at 2 h ([3]; read-out: Cell viability): 89.3 ± 6.1% | viability at 4 h ([3]; read-out: Cell viability): 74.7 ± 8% | viability at 6 h ([3]; read-out: Cell viability): 73.1 ± 4.6% | viability at 24 h ([3]; read-out: Cell viability): 39.1 ± 1.3% | % tail DNA, median ([4]; 0.5 h after single ocular instillation (1% EtBr, 3% MMS, 1% 4-NQO)): 25.8% | Frequency of hedgehog ([4]; 0.5 h after single ocular instillation (1% EtBr, 3% MMS, 1% 4-NQO), mean ± SD, n = 3): 3.6 ± 2.5% | % tail DNA, mean ± SD ([4]; 0.5 h after single ocular instillation of 50 μL (1% EtBr, 3% MMS, 1% 4-NQO), n = 3 eyes): 31.0 ± 3.0% | % tail DNA, median ([4]; 2 h after single ocular instillation (1% EtBr, 3% MMS, 1% 4-NQO)): 22.6% | Frequency of hedgehog ([4]; 2 h after single ocular instillation (1% EtBr, 3% MMS, 1% 4-NQO), mean ± SD, n = 3): 3.3 ± 1.7% | % tail DNA, mean ± SD ([4]; 2 h after single ocular instillation of 50 μL (1% EtBr, 3% MMS, 1% 4-NQO), n = 3 eyes): 28.1 ± 1.6% | % tail DNA, median ([4]; 4 h after single ocular instillation (1% EtBr, 3% MMS, 1% 4-NQO)): 61.5% | Frequency of hedgehog ([4]; 4 h after single ocular instillation (1% EtBr, 3% MMS, 1% 4-NQO), mean ± SD, n = 3): 8.9 ± 3.5^a % | % tail DNA, mean ± SD ([4]; 4 h after single ocular instillation of 50 μL (1% EtBr, 3% MMS, 1% 4-NQO), n = 3 eyes): 55.3 ± 1.4% | % tail DNA, median ([4]; 6 h after single ocular instillation (1% EtBr, 3% MMS, 1% 4-NQO)): 40.4% | Frequency of hedgehog ([4]; 6 h after single ocular instillation (1% EtBr, 3% MMS, 1% 4-NQO), mean ± SD, n = 3): 1.6 ± 2.3% | % tail DNA, mean ± SD ([4]; 6 h after single ocular instillation of 50 μL (1% EtBr, 3% MMS, 1% 4-NQO), n = 3 eyes): 41.0 ± 6.5% | % tail DNA, median ([4]; 24 h after single ocular instillation (1% EtBr, 3% MMS, 1% 4-NQO)): 5.4% | Frequency of hedgehog ([4]; 24 h after single ocular instillation (1% EtBr, 3% MMS, 1% 4-NQO), mean ± SD, n = 3): 0.4 ± 0.6% | % tail DNA, mean ± SD ([4]; 24 h after single ocular instillation of 50 μL (1% EtBr, 3% MMS, 1% 4-NQO), n = 3 eyes): 10.0 ± 4.0% | Time of the peak value of the % tail DNA [4, 6]: 4 h | Ophthalmological changes of the anterior ocular segment ([5]; 24 h after single ocular instillation (1% EtBr, 3% MMS)): No abnormal ophthalmological changes
